# Source: ChEMBL document CHEMBL1128997, “Synthesis and antitumor activity of a new class of water soluble camptothecin derivatives” (Bioorg Med Chem Lett, 1996)
# How the values were obtained:
# [1] = target: T1, DNA topoisomerase 1 (Homo sapiens, UniProt P11387); assay: Compound was tested in vitro for inhibition of topoisomerase I.
# T1 sequence (P11387 whole entry): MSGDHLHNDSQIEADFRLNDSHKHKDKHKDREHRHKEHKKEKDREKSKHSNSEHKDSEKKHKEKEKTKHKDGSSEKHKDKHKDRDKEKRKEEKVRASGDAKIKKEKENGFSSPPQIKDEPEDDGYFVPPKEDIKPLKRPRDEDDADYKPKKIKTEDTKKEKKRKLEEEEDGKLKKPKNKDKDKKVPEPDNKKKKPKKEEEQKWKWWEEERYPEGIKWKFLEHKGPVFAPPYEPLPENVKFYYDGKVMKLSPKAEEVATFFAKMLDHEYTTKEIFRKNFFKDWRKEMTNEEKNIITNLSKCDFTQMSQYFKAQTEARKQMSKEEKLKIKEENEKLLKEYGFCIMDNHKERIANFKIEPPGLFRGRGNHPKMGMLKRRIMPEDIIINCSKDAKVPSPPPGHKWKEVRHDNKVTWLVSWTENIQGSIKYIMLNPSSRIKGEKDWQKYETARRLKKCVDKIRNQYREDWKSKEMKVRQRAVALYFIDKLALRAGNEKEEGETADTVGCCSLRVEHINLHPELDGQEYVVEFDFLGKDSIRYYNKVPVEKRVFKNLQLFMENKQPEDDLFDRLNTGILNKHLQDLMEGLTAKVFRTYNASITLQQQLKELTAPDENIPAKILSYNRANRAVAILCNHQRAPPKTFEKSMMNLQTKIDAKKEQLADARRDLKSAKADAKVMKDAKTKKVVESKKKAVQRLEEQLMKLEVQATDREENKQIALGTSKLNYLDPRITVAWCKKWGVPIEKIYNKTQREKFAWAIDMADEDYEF
# [2] = system: L1210; assay: Compound was tested in vitro for cytotoxicity against L1210 murine leukemia cells.; assay type: functional, cell-based; details: Mus musculus
# [3] = system: Mus musculus; assay: Activity against L1210 ascitic leukemia expressed as ratio of the median survival time of treated mice to that of untreated control X 100 after iv administration at a optimal dose of 15 mg/Kg; assay type: functional
# [4] = system: Mus musculus; assay: Activity against L1210 ascitic leukemia expressed as ratio of the median survival time of treated mice to that of untreated control X 100 after ip administration at a optimal dose of 10 mg/Kg; assay type: functional
# [5] = system: Mus musculus; assay: Activity against L1210 ascitic leukemia expressed as ratio of the median survival time of treated mice to that of untreated control X 100 after ip administration at a optimal dose of 15 mg/Kg; assay type: functional
# [6] = system: Mus musculus; assay: Activity against L1210 ascitic leukemia expressed as ratio of the median survival time of treated mice to that of untreated control X 100 after iv administration at a optimal dose of 20 mg/Kg; assay type: functional
# [7] = system: Mus musculus; assay: Activity against L1210 ascitic leukemia expressed as ratio of the median survival time of treated mice to that of untreated control X 100 after iv administration at a optimal dose of 2.5 mg/Kg; assay type: functional
# [8] = system: Mus musculus; assay: Activity against L1210 ascitic leukemia expressed as ratio of the median survival time of treated mice to that of untreated control X 100 after ip administration at a optimal dose of 1.5 mg/Kg; assay type: functional
smiles,measurement,setting,value
CCc1c2c(nc3cccc(/N=C/N(C)C)c13)-c1cc3c(c(=O)n1C2)COC(=O)[C@]3(O)CC,IC50,[1],3600 nM
same,IC50,[2],52.4 nM
CC[C@@]1(O)C(=O)OCc2c1cc1n(c2=O)Cc2cc3c(/N=C/N4CCOCC4)cccc3nc2-1,IC50,[1],69000 nM
same,IC50,[2],125 nM
CC[C@@]1(O)C(=O)OCc2c1cc1n(c2=O)Cc2cc3c(N/C=N/C)cccc3nc2-1.Cl,IC50,[1],6600 nM
same,IC50,[2],52 nM
same,T/C,[3],167%
same,T/C,[4],169%
CC[C@@]1(O)C(=O)OCc2c1cc1n(c2=O)Cc2cc3c(NC=N)cccc3nc2-1.Cl,IC50,[1],20400 nM
same,T/C,[5],219%
same,IC50,[2],92.5 nM
same,T/C,[3],143%
CC[C@@]1(O)C(=O)OCc2c1cc1n(c2=O)Cc2cc3c(/N=C/N(C)C)cccc3nc2-1.Cl,IC50,[1],19200 nM
same,T/C,[5],175%
same,T/C,[6],200%
same,IC50,[2],108 nM
CC[C@@]1(O)C(=O)OCc2c1cc1n(c2=O)Cc2cc3c(/N=C/N(C)c4ccccc4)cccc3nc2-1,IC50,[1],2200 nM
same,IC50,[2],28.1 nM
CC[C@@]1(O)C(=O)OCc2c1cc1n(c2=O)Cc2cc3cc(/N=C/N(C)C)ccc3nc2-1,IC50,[1],42000 nM
same,IC50,[2],94.5 nM
CC[C@@]1(O)C(=O)OCc2c1cc1n(c2=O)Cc2cc3c(/N=C(\C)N(C)C)cccc3nc2-1,IC50,[1],3500 nM
same,IC50,[2],689 nM
CC[C@@]1(O)C(=O)OCc2c1cc1n(c2=O)Cc2cc3c(N)cccc3nc2-1 [9-AMINOCAMPTOTHECIN],IC50,[1],4200 nM
same,IC50,[2],12.7 nM
same,T/C,[7],138%
same,T/C,[8],163%
